Experimental data reported in ChEMBL document CHEMBL3994655, “Methylsulfonyl benzothiazoles (MSBT) derivatives: Search for new potential antimicrobial and anticancer agents” (2017).
≈ marks a conversion by molar mass, not a printed value.

How the values were obtained:
Candida albicans [1] = assay: Antifungal activity against Candida albicans A01 after 24 to 48 hrs by macro-broth dilution method; assay type: functional
Candida albicans [2] = assay: Antifungal activity against Candida albicans ATCC 10231 after 24 to 48 hrs by macro-broth dilution method; assay type: functional
Pichia kudriavzevii [3] = assay: Antifungal activity against Candida krusei G03 after 24 to 48 hrs by macro-broth dilution method; assay type: functional
Pichia kudriavzevii [4] = assay: Antifungal activity against Candida krusei G06 after 24 to 48 hrs by macro-broth dilution method; assay type: functional
Nakaseomyces glabratus [5] = assay: Antifungal activity against Candida glabrata H04 after 24 to 48 hrs by macro-broth dilution method; assay type: functional
Nakaseomyces glabratus [6] = assay: Antifungal activity against Candida glabrata H05 after 24 to 48 hrs by macro-broth dilution method; assay type: functional
Staphylococcus aureus [7] = assay: Antibacterial activity against Staphylococcus aureus 209P assessed as zone of inhibition at 5 mg/ml by agar well diffusion method; assay type: functional; conditions: read-out: DIZ
Escherichia coli [8] = assay: Antibacterial activity against Escherichia coli ATCC 35421 assessed as zone of inhibition at 5 mg/ml by agar well diffusion method; assay type: functional; conditions: read-out: DIZ
Candida albicans [9] = assay: Antifungal activity against Candida albicans A01 assessed as zone of inhibition at 5 mg/ml by agar well diffusion method; assay type: functional; conditions: read-out: DIZ
Staphylococcus aureus [10] = assay: Antibacterial activity against Staphylococcus aureus 209P assessed as zone of inhibition at 1 mg/ml by agar well diffusion method; assay type: functional; conditions: read-out: DIZ
Escherichia coli [11] = assay: Antibacterial activity against Escherichia coli ATCC 35421 assessed as zone of inhibition at 1 mg/ml by agar well diffusion method; assay type: functional; conditions: read-out: DIZ
Candida albicans [12] = assay: Antifungal activity against Candida albicans A01 assessed as zone of inhibition at 1 mg/ml by agar well diffusion method; assay type: functional; conditions: read-out: DIZ
HeLa [13] = assay: Cytotoxicity against human HeLa cells assessed as cell growth at 10^-7 M after 48 hrs by SRB assay relative to control; assay type: functional; conditions: read-out: Activity
HeLa [14] = assay: Cytotoxicity against human HeLa cells assessed as cell growth at 10^-6 M after 48 hrs by SRB assay relative to control; assay type: functional; conditions: read-out: Activity
HeLa [15] = assay: Cytotoxicity against human HeLa cells assessed as cell growth at 10^-5 M after 48 hrs by SRB assay relative to control; assay type: functional; conditions: read-out: Activity
HeLa [16] = assay: Cytotoxicity against human HeLa cells assessed as cell growth at 10^-4 M after 48 hrs by SRB assay relative to control; assay type: functional; conditions: read-out: Activity
HeLa [17] = assay: Growth inhibition of human HeLa cells after 48 hrs by SRB assay; assay type: functional
HeLa [18] = assay: Cytotoxicity against human HeLa cells assessed as reduction in cell viability after 48 hrs by SRB assay; assay type: functional, cell-based
Staphylococcus aureus [19] = assay: Antibacterial activity against Staphylococcus aureus 209P after 24 to 48 hrs by macro-broth dilution method; assay type: functional
Staphylococcus aureus [20] = assay: Antibacterial activity against methicillin-resistant Staphylococcus aureus 3710 after 24 to 48 hrs by macro-broth dilution method; assay type: functional
Staphylococcus aureus [21] = assay: Antibacterial activity against methicillin-resistant Staphylococcus aureus ATCC 33591 after 24 to 48 hrs by macro-broth dilution method; assay type: functional
[22] = tested on: Staphylococcus epidermidis; assay: Antibacterial activity against Staphylococcus epidermidis 209E after 24 to 48 hrs by macro-broth dilution method; assay type: functional
Escherichia coli [23] = assay: Antibacterial activity against Escherichia coli ATCC 35421 after 24 to 48 hrs by macro-broth dilution method; assay type: functional
Escherichia coli [24] = assay: Antibacterial activity against Escherichia coli ATCC 20732 after 24 to 48 hrs by macro-broth dilution method; assay type: functional
Pseudomonas aeruginosa = assay: Antibacterial activity against Pseudomonas aeruginosa M5 after 24 to 48 hrs by macro-broth dilution method; assay type: functional

Compound | MIC (Candida albicans [1]) [mg/L] | MIC (Candida albicans [2]) [mg/L] | MIC (Pichia kudriavzevii [3]) [mg/L] | MIC (Pichia kudriavzevii [4]) [mg/L] | MIC (Nakaseomyces glabratus [5]) [mg/L] | MIC (Nakaseomyces glabratus [6]) [mg/L] | zone of inhibition at 5000 µg/mL (Staphylococcus aureus [7]) [mm] | zone of inhibition at 5000 µg/mL (Escherichia coli [8]) [mm] | zone of inhibition at 5000 µg/mL (Candida albicans [9]) [mm] | zone of inhibition at 1000 µg/mL (Staphylococcus aureus [10]) [mm] | zone of inhibition at 1000 µg/mL (Escherichia coli [11]) [mm] | zone of inhibition at 1000 µg/mL (Candida albicans [12]) [mm] | growth at 0.1 µM (HeLa [13]) [%] | growth at 1 µM (HeLa [14]) [%] | growth at 10 µM (HeLa [15]) [%] | growth at 100 µM (HeLa [16]) [%] | GI50 (HeLa [17]) [µM] | LC50 (HeLa [17]) [µM] | TGI (HeLa [17]) [µM] | growth inhibition (GI) (HeLa [17]) | further results
OC(Cn1cncn1)(Cn1cncn1)c1ccc(F)cc1F [FLUCONAZOLE] | 4 (≈ 13.1 µM) | 4 (≈ 13.1 µM) | 2 (≈ 6.53 µM) | 2 (≈ 6.53 µM) | 2 (≈ 6.53 µM) | 2 (≈ 6.53 µM) | – | – | – | – | – | – | – | – | – | – | – | – | – | – | –
CCOc1ccc2sc(S(C)(=O)=O)nc2c1N | 8 (≈ 29.4 µM) | 4 (≈ 14.7 µM) | 10 (≈ 36.7 µM) | 10 (≈ 36.7 µM) | 10 (≈ 36.7 µM) | 10 (≈ 36.7 µM) | ≤ 7 | ≤ 7 | 19 | 17 | ≤ 7 | ≤ 7 | 99.5 | 93 | 65.6 | -31.9 | 34 | > 100 | 74.3 | Dose-dependent effect | Activity (HeLa [18]): Dose-dependent effect
CCOc1ccc2sc(S(C)(=O)=O)nc2c1S(=O)(=O)Nc1ccc([N+](=O)[O-])cc1 | – | – | – | – | – | – | 16 | 10 | ≤ 7 | 14 | 9 | ≤ 7 | 98.3 | 46.2 | -12.3 | -67.8 | 0.22 | 81.5 | 40.8 | Dose-dependent effect | MIC (Staphylococcus aureus [19]): 10 mg/L (≈ 21.9 µM); MIC (Staphylococcus aureus [20]): 10 mg/L (≈ 21.9 µM); MIC (Staphylococcus aureus [21]): 10 mg/L (≈ 21.9 µM); MIC [22]: 10 mg/L (≈ 21.9 µM); MIC (Escherichia coli [23]): 20 mg/L (≈ 43.7 µM); MIC (Escherichia coli [24]): 20 mg/L (≈ 43.7 µM); MIC (Pseudomonas aeruginosa): 50 mg/L (≈ 109 µM); Activity (HeLa [18]): Dose-dependent effect
CS(=O)(=O)c1nc2cc(OCc3ccc(Cl)cc3)ccc2s1 | 20 (≈ 56.5 µM) | 20 (≈ 56.5 µM) | 20 (≈ 56.5 µM) | 20 (≈ 56.5 µM) | 50 (≈ 141 µM) | 50 (≈ 141 µM) | 22 | 10 | 16 | 13 | 9 | 9 | 100 | 89.9 | 60.8 | -50.5 | 33 | > 100 | 73.3 | Dose-dependent effect | MIC (Staphylococcus aureus [19]): 100 mg/L (≈ 283 µM); MIC (Staphylococcus aureus [20]): 100 mg/L (≈ 283 µM); MIC (Staphylococcus aureus [21]): 100 mg/L (≈ 283 µM); MIC [22]: 100 mg/L (≈ 283 µM); MIC (Escherichia coli [23]): 20 mg/L (≈ 56.5 µM); MIC (Escherichia coli [24]): 20 mg/L (≈ 56.5 µM); MIC (Pseudomonas aeruginosa): 50 mg/L (≈ 141 µM); Activity (HeLa [18]): Dose-dependent effect
